This assay concerns c-Myc. Briefly: c-Myc immunofluorescence assay. It is filed as cell-based, human. The settings on record: A549 cells, 24 hours, anti-c-Myc immunofluorescence. In short, it runs like this:
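A549 NSCLC cells grown 48 h, then treated 24 h with increasing compound concentrations; fixed in 4% paraformaldehyde, stained with anti-c-Myc antibody plus fluorescent secondary and DAPI. Per-cell c-Myc fluorescence quantified by high-content imaging at 20×; dose-response fitted by logistic regression to give EC50.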
As for `COc1ccc(-c2noc(N3CCC(C(=O)Nc4ccccc4Cl)CC3)n2)cc1` [Compound 224, N-(2-chlorophenyl)-1-(3-(4-methoxyphenyl)-1,2,4-oxadiazol-5-yl)piperidine-4-carboxamide], the “Myc Efficacy (−LogEC50)” value was “+ (+ >3 and <5)”.

Consider `COc1ccc(-c2noc(N3CCN(C(=O)N4CCN(C(C)=O)CC4)CC3)n2)cc1` [Compound 225, 1-(4-(4-(3-(4-methoxyphenyl)-1,2,4-oxadiazol-5-yl)piperazine-1-carbonyl)piperazin-1-yl)ethan-1-one], for which the “Myc Efficacy (−LogEC50)” value was “− (− ≤3)”. Under `COc1ccc(-c2noc(N3CCN(C(=O)N4CCCC(CC(C)C)C4)CC3)n2)cc1` (stereo not drawn) [Compound 226, (3-isobutylpiperidin-1-yl)(4-(3-(4-methoxyphenyl)-1,2,4-oxadiazol-5-yl)piperazin-1-yl)methanone] stands “+ (+ >3 and <5)”; under `COc1ccc(-c2noc(N3CCN(C(=O)C4CCCN(CC(C)C)C4)CC3)n2)cc1` (stereo not drawn) [Compound 227, (1-isobutylpiperidin-3-yl)(4-(3-(4-methoxyphenyl)-1,2,4-oxadiazol-5-yl)piperazin-1-yl)methanone], “+ (+ >3 and <5)”; under `COc1ccc(-c2noc(N3CCC(C(=O)NCCCN4CCN(C(=O)c5ccccc5)CC4)CC3)n2)cc1` [Compound 228, N-(3-(4-benzoylpiperazin-1-yl)propyl)-1-(3-(4-methoxyphenyl)-1,2,4-oxadiazol-5-yl)piperidine-4-carboxamide], “+ (+ >3 and <5)”. Under `COc1ccc(-c2noc(C3CCC(C(=O)NCC4CC(=O)N(C)C4)CC3)n2)cc1` (stereo not drawn) [Compound 229, (1r,4r)-4-(3-(4-methoxyphenyl)-1,2,4-oxadiazol-5-yl)-N-((1-methyl-5-oxopyrrolidin-3-yl)methyl)cyclohexane-1-carboxamide] stands “+ (+ >3 and <5)”.

Consider `CC(=O)Nc1cccc(-c2noc(N3CCC(C(=O)NCC4CCN(Cc5ccc(C)cc5)C4)CC3)n2)c1` (stereo not drawn) [Compound 230, 1-(3-(3-acetamidophenyl)-1,2,4-oxadiazol-5-yl)-N-((1-(4-methylbenzyl)pyrrolidin-3-yl)methyl)piperidine-4-carboxamide], for which the “Myc Efficacy (−LogEC50)” value was “+ (+ >3 and <5)”. The same measure for `COc1ccc(-c2noc(N3CCC(C(=O)NCC4CCN(Cc5ccc(C)cc5)C4)CC3)n2)c(Cl)c1` (stereo not drawn) [Compound 231, 1-(3-(2-chloro-4-methoxyphenyl)-1,2,4-oxadiazol-5-yl)-N-((1-(4-methylbenzyl)pyrrolidin-3-yl)methyl)piperidine-4-carboxamide]: “++ (++ ≥5 and <6)”. As for `COc1ncc(-c2noc(N3CCC(C(=O)NCC4CCN(Cc5ccc(C)cc5)C4)CC3)n2)cn1` (stereo not drawn) [Compound 232, 1-(3-(2-methoxypyrimidin-5-yl)-1,2,4-oxadiazol-5-yl)-N-((1-(4-methylbenzyl)pyrrolidin-3-yl)methyl)piperidine-4-carboxamide], the “Myc Efficacy (−LogEC50)” value is “+ (+ >3 and <5)”.

Turning to `COc1cnc(-c2noc(N3CCC(C(=O)NCC4CCN(Cc5ccc(C)cc5)C4)CC3)n2)cn1` (stereo not drawn) [Compound 233, 1-(3-(5-methoxypyrazin-2-yl)-1,2,4-oxadiazol-5-yl)-N-((1-(4-methylbenzyl)pyrrolidin-3-yl)methyl)piperidine-4-carboxamide], the “Myc Efficacy (−LogEC50)” value was “+ (+ >3 and <5)”. As for `COc1ccc(-c2noc(N3CCC(C(=O)NCC4CCN(c5ccccc5)C4)CC3)n2)cc1` (stereo not drawn) [Compound 234, 1-(3-(4-methoxyphenyl)-1,2,4-oxadiazol-5-yl)-N-((1-phenylpyrrolidin-3-yl)methyl)piperidine-4-carboxamide], the “Myc Efficacy (−LogEC50)” value was “+ (+ >3 and <5)”. On to `COc1ccc(-c2noc(N3CCN(c4nc5ccccc5[nH]4)CC3)n2)cc1` [Compound 235, 5-(4-(1H-benzo[d]imidazol-2-yl)piperazin-1-yl)-3-(4-methoxyphenyl)-1,2,4-oxadiazole], for which the “Myc Efficacy (−LogEC50)” value is “+ (+ >3 and <5)”.

As for `COc1ccc(-c2noc(N3CCN(C(=O)c4cccc(CN5CCCCC5)c4)CC3)n2)cc1` [Compound 236, (4-(3-(4-methoxyphenyl)-1,2,4-oxadiazol-5-yl)piperazin-1-yl)(3-(piperidin-1-ylmethyl)phenyl)methanone], the “Myc Efficacy (−LogEC50)” value was “++ (++ ≥5 and <6)”. Under `Cc1ccc(CN2CCC(CNC(=O)C3CCN(c4nc(-c5ccc(OC(F)(F)F)cc5)no4)CC3)C2)cc1` (stereo not drawn) [Compound 237, N-((1-(4-methylbenzyl)pyrrolidin-3-yl)methyl)-1-(3-(4-(trifluoromethoxy)phenyl)-1,2,4-oxadiazol-5-yl)piperidine-4-carboxamide] stands “++ (++ ≥5 and <6)”; under `Cc1ccc(CN2CCC(CNC(=O)C3CCN(c4nc(-c5ccc(OC(F)F)cc5)no4)CC3)C2)cc1` (stereo not drawn) [Compound 238, 1-(3-(4-(difluoromethoxy)phenyl)-1,2,4-oxadiazol-5-yl)-N-((1-(4-methylbenzyl)pyrrolidin-3-yl)methyl)piperidine-4-carboxamide], “+++ (+++ ≥6)”. The same measure for `O=C(NCCCN1CCC(Cc2ccccc2)CC1)C1CCN(c2nc(-c3ccc(OC(F)(F)F)cc3)no2)CC1` [Compound 239, N-(3-(4-benzylpiperidin-1-yl)propyl)-1-(3-(4-(trifluoromethoxy)phenyl)-1,2,4-oxadiazol-5-yl)piperidine-4-carboxamide]: “+++ (+++ ≥6)”. The same measure for `O=C(NCCCN1CCC(Cc2ccccc2)CC1)C1CCN(c2nc(-c3ccc(OC(F)F)cc3)no2)CC1` [Compound 240, N-(3-(4-benzylpiperidin-1-yl)propyl)-1-(3-(4-(difluoromethoxy)phenyl)-1,2,4-oxadiazol-5-yl)piperidine-4-carboxamide]: “+++ (+++ ≥6)”. Consider `N#Cc1ccc(-c2noc(N3CCC(C(=O)NCCCN4CCC(Cc5ccccc5)CC4)CC3)n2)cc1` [Compound 241, N-(3-(4-benzylpiperidin-1-yl)propyl)-1-(3-(4-cyanophenyl)-1,2,4-oxadiazol-5-yl)piperidine-4-carboxamide], for which the “Myc Efficacy (−LogEC50)” value is reported as “+++ (+++ ≥6)”.

On to `COc1ccc(-c2noc(N3CCC(C(=O)NCC4CCN(C(=O)c5ccc(C)cn5)C4)CC3)n2)cc1` (stereo not drawn) [Compound 242, 1-(3-(4-methoxyphenyl)-1,2,4-oxadiazol-5-yl)-N-((1-(5-methylpicolinoyl)pyrrolidin-3-yl)methyl)piperidine-4-carboxamide], for which the “Myc Efficacy (−LogEC50)” value is “+ (+ >3 and <5)”.

Turning to `Cc1ccc(CN2CCC(CNC(=O)C3CCN(c4nc(-c5ccc(Cl)cc5)no4)CC3)C2)nc1` (stereo not drawn) [Compound 243, 1-(3-(4-chlorophenyl)-1,2,4-oxadiazol-5-yl)-N-((1-((5-methylpyridin-2-yl)methyl)pyrrolidin-3-yl)methyl)piperidine-4-carboxamide], the “Myc Efficacy (−LogEC50)” value is given as “+++ (+++ ≥6)”. Under `Cc1ccc(CN2CCC(CNC(=O)C3CCN(c4nc(-c5ccc(C#N)cc5)no4)CC3)C2)nc1` (stereo not drawn) [Compound 244, 1-(3-(4-cyanophenyl)-1,2,4-oxadiazol-5-yl)-N-((1-((5-methylpyridin-2-yl)methyl)pyrrolidin-3-yl)methyl)piperidine-4-carboxamide] stands “+ (+ >3 and <5)”. The same measure for `COc1ccc(-c2noc(N3CCN(C(=O)NCCCN4CCC(Oc5ccccc5)CC4)CC3)n2)cc1` [Compound 245, 4-(3-(4-methoxyphenyl)-1,2,4-oxadiazol-5-yl)-N-(3-(4-phenoxypiperidin-1-yl)propyl)piperazine-1-carboxamide]: “+++ (+++ ≥6)”. As to `C#CCCC1(CCNC(=O)N2CCN(c3nc(-c4ccc(OC)cc4)no3)CC2)N=N1` [Compound 246, N-(2-(3-(but-3-yn-1-yl)-3H-diazirin-3-yl)ethyl)-4-(3-(4-methoxyphenyl)-1,2,4-oxadiazol-5-yl)piperazine-1-carboxamide], the “Myc Efficacy (−LogEC50)” value was “+ (+ >3 and <5)”. The same measure for `COc1cnc(-c2noc(N3CCC(C(=O)NCC4CCN(Cc5ccc(C)cc5)C4)CC3)n2)nc1` (stereo not drawn) [Compound 247, 1-(3-(5-methoxypyrimidin-2-yl)-1,2,4-oxadiazol-5-yl)-N-((1-(4-methylbenzyl)pyrrolidin-3-yl)methyl)piperidine-4-carboxamide]: “+ (+ >3 and <5)”; for `COc1ccc(-c2noc(N3CCN(C(=O)NCCCN4CCC(Cc5ccccn5)CC4)CC3)n2)cc1` [Compound 248, 4-(3-(4-methoxyphenyl)-1,2,4-oxadiazol-5-yl)-N-(3-(4-(pyridin-2-ylmethyl)piperidin-1-yl)propyl)piperazine-1-carboxamide]: “+++ (+++ ≥6)”; for `COc1ccc(-c2noc(N3CCC(C(=O)NCC4(N(C)C)CCCCC4)CC3)n2)cc1` [Compound 249, N-((1-(dimethylamino)cyclohexyl)methyl)-1-(3-(4-methoxyphenyl)-1,2,4-oxadiazol-5-yl)piperidine-4-carboxamide]: “+ (+ >3 and <5)”.

Regarding `COc1ccc(-c2noc(N3CCC(C(=O)NCC4CCN(C(C)(C)C)C4)CC3)n2)cc1` (stereo not drawn) [Compound 250, N-((1-(tert-butyl)pyrrolidin-3-yl)methyl)-1-(3-(4-methoxyphenyl)-1,2,4-oxadiazol-5-yl)piperidine-4-carboxamide], the “Myc Efficacy (−LogEC50)” value was “+ (+ >3 and <5)”. The same measure for `CCCN1CCC(NC(=O)C2CCN(c3nc(-c4ccc(OC)cc4)no3)CC2)CC1` [Compound 251, 1-(3-(4-methoxyphenyl)-1,2,4-oxadiazol-5-yl)-N-(1-propylpiperidin-4-yl)piperidine-4-carboxamide]: “− (− ≤3)”; for `COc1ccc(-c2noc(N3CCC(C(=O)NC[C@H]4CCCN4C)CC3)n2)cc1` [Compound 252, (R)-1-(3-(4-methoxyphenyl)-1,2,4-oxadiazol-5-yl)-N-((1-methylpyrrolidin-2-yl)methyl)piperidine-4-carboxamide]: “+ (+ >3 and <5)”. Regarding `COc1ccc(-c2noc(N3CCC(C(=O)NC[C@H]4CCN(C)C4)CC3)n2)cc1` [Compound 253, (R)-1-(3-(4-methoxyphenyl)-1,2,4-oxadiazol-5-yl)-N-((1-methylpyrrolidin-3-yl)methyl)piperidine-4-carboxamide], the “Myc Efficacy (−LogEC50)” value was “+ (+ >3 and <5)”.

The record behind these values is patent US12344600B2, “c-Myc mRNA translation modulators and uses thereof in the treatment of cancer” (Anima Biotech Inc., priority 2022, dated 2025).
